Assay results: ChEMBL document CHEMBL5614442, “Discovery, synthesis and biological evaluation of novel isoquinoline derivatives as potent indoleamine 2, 3-dioxygenase 1 and tryptophan 2, 3-dioxygenase dual inhibitors” (Eur J Med Chem, 2024)

Tests used:
[1] = target: T1, Indoleamine 2,3-dioxygenase 1 (Homo sapiens, UniProt P14902); assay: Inhibition of N-terminal His-tagged recombinant human IDO1 extracted from Escherichia coli Transetta (DE3) using L-tryptophan as substrate preincubated for 5 mins followed by substrate addition and measured after 1 hrs by absorbance based microplate reader
T1 sequence (P14902 whole entry): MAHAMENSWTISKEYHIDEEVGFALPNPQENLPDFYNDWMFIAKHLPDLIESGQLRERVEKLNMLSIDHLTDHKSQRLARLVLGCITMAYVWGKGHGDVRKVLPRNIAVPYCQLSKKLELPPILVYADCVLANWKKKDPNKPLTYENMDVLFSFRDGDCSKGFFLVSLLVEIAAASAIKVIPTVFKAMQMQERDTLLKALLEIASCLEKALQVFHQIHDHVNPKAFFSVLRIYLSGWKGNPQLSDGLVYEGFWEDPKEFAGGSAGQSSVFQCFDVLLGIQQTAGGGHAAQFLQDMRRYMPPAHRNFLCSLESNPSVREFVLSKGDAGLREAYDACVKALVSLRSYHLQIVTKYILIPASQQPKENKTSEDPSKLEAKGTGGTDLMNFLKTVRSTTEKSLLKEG

[2] = target: T2, Tryptophan 2,3-dioxygenase (Homo sapiens, UniProt P48775)
T2 sequence (P48775 whole entry): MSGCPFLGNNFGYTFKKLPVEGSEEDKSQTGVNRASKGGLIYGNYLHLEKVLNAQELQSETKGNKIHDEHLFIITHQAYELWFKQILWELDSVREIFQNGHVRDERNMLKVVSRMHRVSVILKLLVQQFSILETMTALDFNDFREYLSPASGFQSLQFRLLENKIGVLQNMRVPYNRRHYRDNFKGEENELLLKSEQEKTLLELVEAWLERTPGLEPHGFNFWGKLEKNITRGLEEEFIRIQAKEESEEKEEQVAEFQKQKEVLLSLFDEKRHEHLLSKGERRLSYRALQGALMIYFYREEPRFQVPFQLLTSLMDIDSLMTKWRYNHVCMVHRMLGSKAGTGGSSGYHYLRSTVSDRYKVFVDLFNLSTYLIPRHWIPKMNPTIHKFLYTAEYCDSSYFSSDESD

[3] = target: T1, Indoleamine 2,3-dioxygenase 1; assay: Inhibition of IDO1 in IFN-gamma induced human HeLa cells using L-tryptophan as substrate incubated for 24 hrs by absorbance based microplate analysis; format: cell-based
[4] = target: T2, Tryptophan 2,3-dioxygenase; remark: listed apart in the source

COc1ccc2cc(-c3ccc(C)cc3)ncc2c1OC
IC50 [1]: > 100 µM
IC50 [2]: > 100 µM

COc1ccc2cc(-c3ccc(NC(=O)c4ccccc4)cc3)ncc2c1O
IC50 [3]: > 30 µM
IC50 [1]: 4.45 µM
IC50 [4]: 14.6 µM
IC50 [2]: 0.19 µM

COc1ccc2cc(-c3cccnc3)ncc2c1OC
IC50 [1]: > 100 µM
IC50 [2]: > 100 µM

COc1ccc2cc(-c3ccc(Br)cc3)ncc2c1OC
IC50 [1]: 78.6 µM
IC50 [2]: 34.3 µM

COc1ccc2cc(-c3ccc(NC(=O)c4ccc(C)cc4)cc3)ncc2c1O
IC50 [1]: > 100 µM
IC50 [2]: 45.3 µM

COc1cccc(C(=O)Nc2ccc(-c3cc4ccc(OC)c(O)c4cn3)cc2)c1
IC50 [1]: 14.2 µM
IC50 [2]: 4.08 µM

COc1ccc2cc(-c3ccc(NS(C)(=O)=O)cc3)ncc2c1O
IC50 [3]: 23 µM
IC50 [1]: 1.24 µM
IC50 [4]: 14.8 µM
IC50 [2]: 0.2 µM

Oc1ccc2cc(-c3ccc4c(c3)OCO4)ncc2c1
IC50 [1]: > 100 µM
IC50 [2]: > 100 µM

COc1ccc(-c2cc3ccc(OC)c(O)c3cn2)cc1
IC50 [3]: 15.8 µM
IC50 [1]: 0.71 µM
IC50 [4]: > 30 µM
IC50 [2]: 0.45 µM

COc1ccc2cc(-c3ccc(NC(=O)C(C)(C)C)cc3)ncc2c1O
IC50 [1]: 2.81 µM
IC50 [2]: 1.2 µM

COc1ccc2cc(-c3ccc(C(=O)Nc4ccccc4)cc3)ncc2c1O
IC50 [3]: > 30 µM
IC50 [1]: 10.1 µM
IC50 [4]: 22.3 µM
IC50 [2]: 0.25 µM

COc1ccc2cc(-c3ccc(C(C)(C)C)cc3)ncc2c1OC
IC50 [1]: > 100 µM
IC50 [2]: 23.1 µM

COc1ccc2cc(-c3ccc(C(F)(F)F)cc3)ncc2c1O
IC50 [1]: 15.3 µM
IC50 [2]: 7.28 µM

COc1ccc2nc(-c3ccccc3)ncc2c1O
IC50 [1]: > 100 µM
IC50 [2]: > 100 µM

COc1ccc2cc(-c3ccc(NC(=O)C(F)(F)F)cc3)ncc2c1O
IC50 [1]: 6.13 µM
IC50 [2]: 1.16 µM

COc1ccc2cc(-c3ccccc3)ncc2c1OC
IC50 [3]: > 30 µM
IC50 [1]: 7.81 µM
IC50 [4]: > 30 µM
IC50 [2]: 0.34 µM

COc1ccc2cc(-c3ccc(NC(C)=O)cc3)ncc2c1O
IC50 [3]: > 30 µM
IC50 [1]: 2.11 µM
IC50 [4]: > 30 µM
IC50 [2]: 0.35 µM

COc1ccc2cc(-c3ccc(NS(=O)(=O)C4CC4)cc3)ncc2c1O
IC50 [1]: 4.54 µM
IC50 [2]: 3.36 µM

COc1ccc(-c2ccc3c(O)c(OC)ccc3n2)cc1
IC50 [1]: > 100 µM
IC50 [2]: > 100 µM

COc1ccc2nc(-c3ccccc3)ccc2c1O
IC50 [1]: > 100 µM
IC50 [2]: 5.6 µM
